Results from the supplement of paper PMC4862054.

Tests used:
Conditions in all cases: incubation time: 72 h
CAL-120 = experiment: drug sensitivity score (DSS), CellTox Green (DSS (AUC-based score)); higher = stronger drug effect (viability inhibition or cytotoxicity); extreme values may be limits of the assay
Procedure, shortened: (§1)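 The area under the fitted dose-response curve was used to calculate the drug sensitivity score. Cells from breast cancer lines were incubated for 72 h in 384-well plates with compound at 5 concentrations spaced 10-fold over a 10,000-fold range specific to each compound. Plates were read for CellTox Green and then CellTiter-Glo, and normalised to 0.1 % DMSO and a positive kill control.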

HDQ-P1 [1] = experiment: as above
Procedure, shortened: as §1

CAL-51 [2] = experiment: as above
Procedure, shortened: as §1

BT-549 [3] = experiment: as above
Procedure, shortened: as §1

BT-474 [4] = experiment: as above
Procedure, shortened: as §1

MCF-10A = experiment: as above
Procedure, shortened: as §1

MDA-MB-436 [5] = experiment: as above
Procedure, shortened: as §1

MDA-MB-468 [6] = experiment: as above
Procedure, shortened: as §1

CAL-148 [7] = experiment: as above
Procedure, shortened: as §1

HDQ-P1 [8] = experiment: drug sensitivity score (DSS), CellTiter-Blue viability (DSS (AUC-based score)); higher = stronger viability inhibition; extreme values may be limits of the assay
Procedure, shortened: (§2)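 Compound was arrayed in 384-well plates as a 5- or 9-concentration series, and 20 µl of breast cancer cell suspension was seeded on top. After 72 h, each well received 2.5 µl CellTiter-Blue for 2 h at 37 °C before fluorescence reading at 560/590 nm. Per-plate normalisation used 0.1 % DMSO and a positive kill control, and the area under the fitted dose-response curve gave the drug sensitivity score.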

MDA-MB-231 = experiment: as above
Procedure, shortened: as §2

DU-4475 = experiment: as above
Procedure, shortened: as §2

CAL-51 [9] = experiment: as above
Procedure, shortened: as §2

HCC1143 = experiment: as above
Procedure, shortened: as §2

HCC1937 = experiment: as above
Procedure, shortened: as §2

BT-549 [10] = experiment: as above
Procedure, shortened: as §2

BT-474 [11] = experiment: as above
Procedure, shortened: as §2

MDA-MB-436 [12] = experiment: as above
Procedure, shortened: as §2

MFM-223 = experiment: as above
Procedure, shortened: as §2

MDA-MB-453 = experiment: as above
Procedure, shortened: as §2

Hs578T = experiment: as above
Procedure, shortened: as §2

CAL-85-1 = experiment: as above
Procedure, shortened: as §2

SK-BR-3 = experiment: as above
Procedure, shortened: as §2

MDA-MB-468 [13] = experiment: as above
Procedure, shortened: as §2

HCC1599 = experiment: as above
Procedure, shortened: as §2

CAL-148 [14] = experiment: as above
Procedure, shortened: as §2

Cn1c(=O)c(F)c(Nc2ccc(I)cc2F)c2c(=O)n(C[C@@H](O)CO)cnc21 [TAK-733]
drug sensitivity score (CAL-120): 0.284
drug sensitivity score (HDQ-P1 [1]): 0
drug sensitivity score (CAL-51 [2]): 0
drug sensitivity score (BT-549 [3]): 0
drug sensitivity score (BT-474 [4]): 0
drug sensitivity score (MCF-10A): 0
drug sensitivity score (MDA-MB-436 [5]): 0
drug sensitivity score (MDA-MB-468 [6]): 0
drug sensitivity score (CAL-148 [7]): 0
drug sensitivity score (HDQ-P1 [8]): 3.87
drug sensitivity score (MDA-MB-231): 18.1
drug sensitivity score (DU-4475): 29.3
drug sensitivity score (CAL-51 [9]): 3.52
drug sensitivity score (HCC1143): 8.4
drug sensitivity score (HCC1937): 0
drug sensitivity score (BT-549 [10]): 0
drug sensitivity score (BT-474 [11]): 0
drug sensitivity score (MDA-MB-436 [12]): 0
drug sensitivity score (MFM-223): 5.03
drug sensitivity score (MDA-MB-453): 3.27
drug sensitivity score (Hs578T): 1.73
drug sensitivity score (CAL-85-1): 7.69
drug sensitivity score (SK-BR-3): 0
drug sensitivity score (MDA-MB-468 [13]): 0
drug sensitivity score (HCC1599): 0
drug sensitivity score (CAL-148 [14]): 0

CCCC(CCC)C(=O)O [Valproic acid]
drug sensitivity score (CAL-120): 0
drug sensitivity score (HDQ-P1 [1]): 0
drug sensitivity score (CAL-51 [2]): 0
drug sensitivity score (BT-549 [3]): 0
drug sensitivity score (BT-474 [4]): 0
drug sensitivity score (MCF-10A): 0
drug sensitivity score (MDA-MB-436 [5]): 0
drug sensitivity score (MDA-MB-468 [6]): 0
drug sensitivity score (CAL-148 [7]): 0
drug sensitivity score (HDQ-P1 [8]): 0
drug sensitivity score (MDA-MB-231): 0
drug sensitivity score (DU-4475): 0
drug sensitivity score (CAL-51 [9]): 0
drug sensitivity score (HCC1143): 0
drug sensitivity score (HCC1937): 0
drug sensitivity score (BT-549 [10]): 0
drug sensitivity score (BT-474 [11]): 0
drug sensitivity score (MDA-MB-436 [12]): 0
drug sensitivity score (MFM-223): 0
drug sensitivity score (MDA-MB-453): 0
drug sensitivity score (Hs578T): 0
drug sensitivity score (CAL-85-1): 0
drug sensitivity score (SK-BR-3): 0
drug sensitivity score (MDA-MB-468 [13]): 0
drug sensitivity score (HCC1599): 0
drug sensitivity score (CAL-148 [14]): 0
